These results are taken from PubChem BioAssay AID1996.

In brackets after ≈: the same amount, converted by molar mass. Several values for one entry are separate records, joined by “and”; a condition that tells them apart may be missing. Identical values can stand only once.

The solubility (kinetic) is the concentration staying in solution when a stock, usually in DMSO, is diluted into the medium.

For this data set the following is noted: buffer; pH 7.4; 200.0 µM.
As for `N#Cc1ccsc1NC(=O)c1ccc(Cl)c([N+](=O)[O-])c1`, the kinetic solubility stood at 2.9 µg/mL (≈ 9.42 µM).
Then `Cn1nccc1C(=O)N1CCN(c2ccccc2Cl)CC1`, with greater than 45.7 µg/mL; and `CCOC(=O)C1CCCN(C(=O)COc2ccc(S(=O)(=O)N3CCOCC3)cc2)C1` (stereo not given), with greater than 66.1 µg/mL; and `O=C1CN(C(=O)COC(=O)c2cccs2)c2ccccc2N1`, with 29.2 µg/mL (≈ 92.3 µM).
For the compound `Cc1cc(=O)n(Cc2ccccc2)c(O)c1C#N`, the solubility (kinetic) turned out to be 32.2 µg/mL (≈ 134 µM). The solubility kinetic values of the last two compounds are within 1.5-fold of each other.
With `CCOCCCNC(=O)C1CC(=O)N(CCc2ccccc2)C1` (stereo not given), the kinetic solubility worked out at 41.7 µg/mL (≈ 131 µM). This solubility kinetic and that of the compound before are within 1.5-fold of each other.
`Cc1[nH]c2ccc(C(=O)Nc3ccncc3)cc2c1C` returned a solubility (kinetic) of 34.7 µg/mL (≈ 131 µM).
Compound `CC(=O)C1=C(O)C(=O)N(Cc2ccco2)C1c1cccc(F)c1` (stereo not given) had a kinetic solubility greater than 47.3 µg/mL.
Then `O=C(CSc1nnc(-c2ccncc2)o1)Nc1cc(Cl)ccc1C(=O)O`, with greater than 58.6 µg/mL; and `O=C(COC(=O)CN1C(=O)NC2(CCCC2)C1=O)NCc1ccc(Cl)cc1Cl`, with greater than 64.2 µg/mL; and `O=Cc1c[nH]c2cccc(OCc3ccccc3)c12`, with 4.6 µg/mL (≈ 18.3 µM).
Consider `Cc1cc(C)cc(OCC(=O)NC(C)c2ccccc2)c1` (stereo not given), for which the solubility (kinetic) worked out at 28.8 µg/mL (≈ 102 µM).
Compound `CC(C)(C)OC(=O)N1CCN(CCNC(=O)c2ccccc2)CC1` showed a kinetic solubility greater than 50 µg/mL.
On to `CCCC(=O)Nc1ccc(NC(=O)c2cccc(OC)c2)cn1`, for which the kinetic solubility turned out to be 8.7 µg/mL (≈ 27.8 µM).
In turn, `c1ccc(CN2CCN(c3nc4ccccc4s3)CC2)cc1` yielded a kinetic solubility of 1 µg/mL (≈ 3.23 µM).
For `CCC(C)NC(=O)c1c(N)n(CCCOC)c2nc3ccccc3nc12` (stereo not given), the solubility (kinetic) was found to be 6.4 µg/mL (≈ 18 µM).
The value for `CCOC(=O)c1cc2c(ccc3nc(C)c(C)c32)[nH]c1C` was less than 0.3 µg/mL; that for `COCCCNC(=O)C1c2ccccc2Oc2ccccc21` was 15.2 µg/mL (≈ 51.1 µM); that for `CSc1nccn1C(=O)c1ccccc1[N+](=O)[O-]` was greater than 39.5 µg/mL.
With `O=C(CN1C(=O)C(=O)N(CCC2=CCCCC2)C1=O)Nc1ccc(F)cc1F`, the kinetic solubility came out at 6.5 µg/mL (≈ 16.6 µM).
With `Cc1cccc(C2=N/C(=C\c3cccs3)C(=O)O2)c1`, the kinetic solubility worked out at 4 µg/mL (≈ 14.9 µM).
In turn, `CCN(CC)CC(=O)Nc1sc(C)cc1C(=O)c1ccc(C)cc1` showed a kinetic solubility of 0.4 µg/mL (≈ 1.16 µM). This solubility kinetic lies about 10-fold lower than the previous one.
The compound `O=C(COC(=O)c1ccc[nH]c1=O)NC1CC1` showed a solubility (kinetic) of 32.3 µg/mL (≈ 137 µM). This solubility kinetic is about 81-fold higher than that of the compound before.
Regarding `COc1ccccc1NC(=O)CCN1C(=O)c2ccccc2C1=O`, the kinetic solubility is greater than 48.7 µg/mL.
Compound `CCN(CC)Cc1cc(O)c(CN(CC)CC)cc1O` showed a kinetic solubility greater than 42.1 µg/mL.
For the compound `CC(C)(C)c1csc(NC(=O)CSC2=NCCS2)n1`, the solubility (kinetic) came to 10.6 µg/mL (≈ 33.6 µM).
As to `Cn1cnc2cc(NCc3cccs3)ccc21`, the solubility (kinetic) came to 27.1 µg/mL (≈ 111 µM).
Compound `CS(=O)(=O)c1ccccc1C(=O)Nc1nc2ccccc2[nH]1` gave a kinetic solubility greater than 47.3 µg/mL.
The compound `Cc1c(C)c2ccc(OCC(=O)Nc3cccnc3)cc2oc1=O` registered a kinetic solubility of 1.3 µg/mL (≈ 4.01 µM).
The value for `O=S(=O)(c1cccc2nsnc12)N1CCNCC1` was greater than 42.7 µg/mL; that for `CCS(=O)(=O)c1nc2ccccc2n1Cc1ccccn1` was greater than 45.2 µg/mL.
`O=C1CCC(=O)N1c1ccccc1` showed a kinetic solubility greater than 26.3 µg/mL.
With `O=C(Cc1ncon1)Nc1ccc(F)c(F)c1F`, the kinetic solubility is 38.1 µg/mL (≈ 148 µM).
For the compound `COC(=O)c1ccc(COc2cc([N+](=O)[O-])cc3cccnc23)o1`, the kinetic solubility is 3.3 µg/mL (≈ 10.1 µM). This solubility kinetic lies about 12-fold lower than the previous one.
`CCOc1ccc(-c2nc[nH]c2[N+](=O)[O-])cc1` displayed a solubility (kinetic) of 1.7 µg/mL (≈ 7.29 µM).
As for `Cc1ccccc1NC(=S)c1ccc2ccccc2n1`, the solubility (kinetic) is less than 0.3 µg/mL.
Turning to `CN(CCc1nnc(N)s1)[N+](=O)[O-]`, the kinetic solubility is greater than 30.5 µg/mL.
Regarding `CC(NC(=O)CN1CCN(c2ccc(Cl)cc2)CC1)c1ccccc1` (stereo not given), the kinetic solubility was determined as 8.8 µg/mL (≈ 24.6 µM).
In the case of `CNCCCC12CCC(c3ccccc31)c1ccccc12.Cl`, the solubility (kinetic) was 45.8 µg/mL and > 47.1 µg/mL.
In the case of `Cc1ccc(OC(=O)c2ccncc2)c(C)c1`, the kinetic solubility stood at 23.9 µg/mL (≈ 105 µM).
Turning to `CC(CO)NCC12CC3CC(CC(C3)C1)C2.Cl` (stereo not given), the kinetic solubility was greater than 39 µg/mL.
The value for `CCc1cccc(NC(=S)N(CCOC)C(C)c2ccco2)c1` (stereo not given) was 7.9 µg/mL (≈ 23.8 µM).
Then `O=C(NC1CSCC1OC(=O)c1ccccc1)c1ccccc1` (stereo not given), with 26.1 µg/mL (≈ 79.7 µM); and `CSc1ccccc1C(=O)N(C)C(c1ccccc1)c1ccccc1`, with 10.6 µg/mL (≈ 30.5 µM).
In turn, `CC(CN1CCCC1)OC(=O)c1cccc(F)c1.Cl` (stereo not given) showed a kinetic solubility of 39.6 µg/mL.
The value for `CCCCn1c(-c2cccs2)nc2oc3ccccc3c(=O)c2c1=O` was 1.2 µg/mL (≈ 3.41 µM); that for `Nc1ccc(N2CCCC2)c(S(=O)(=O)Nc2cccc(C(F)(F)F)c2)c1` was 25.8 µg/mL (≈ 66.9 µM).
The value for `N#Cc1cccc(C(=O)Nc2cccc(S(=O)(=O)N3CCCC3)c2)c1` was 5.8 µg/mL (≈ 16.3 µM).
As to `CC1(C)C(=O)N(c2ccccc2)C1c1ccccc1O` (stereo not given), the kinetic solubility was greater than 40.1 µg/mL.
With `Nc1ncnc(Nc2ccccc2)n1`, the solubility (kinetic) is greater than 28.1 µg/mL.
For `CC(=O)N/C(=N/c1nc(C)cc(C)n1)Nc1ccc(F)cc1F`, the kinetic solubility came to 1.6 µg/mL (≈ 5.01 µM).
Compound `CCOC(=O)c1c(O)c2cc(Cl)ccc2n(CC)c1=O` yielded a kinetic solubility greater than 44.4 µg/mL.
In turn, `O=C(Nc1cccc(O)c1)c1cccc(NC(=O)c2cccs2)c1` gave a solubility (kinetic) greater than 50.8 µg/mL.
Regarding `Clc1ccc(-c2nc3ccccn3c2CN2CCSCC2)cc1`, the kinetic solubility amounted to 1.9 µg/mL (≈ 5.53 µM).
`C=CCNC(=S)N1CCOCC1` came in with a solubility (kinetic) greater than 27.9 µg/mL.
Then `COc1ccc(NC(=S)NCc2ccc(F)cc2)c(OC)c1`, with greater than 48.1 µg/mL; and `COC(=O)c1scc(C)c1N1C(=O)c2ccccc2C1=O`, with 4.2 µg/mL (≈ 13.9 µM); and `O=c1cc(-c2ccccc2)nc(SCCOc2ccccc2Cl)[nH]1`, with 0.4 µg/mL (≈ 1.11 µM).
In turn, `Cc1cnc(NC(=O)/C=C/c2ccc(Br)o2)s1` had a kinetic solubility of 0.8 µg/mL (≈ 2.55 µM). This solubility kinetic lies about 2-fold higher than the previous one.
`O=C(COc1cccnc1[N+](=O)[O-])Nc1ccc(Cl)cc1F`: the kinetic solubility was found to be 4.6 µg/mL (≈ 14.1 µM).
The compound `O=C(Cn1cnc2c(oc3ccccc32)c1=O)N1CCCC1` had a solubility (kinetic) greater than 44.6 µg/mL.
The value for `Cc1nc([N+](=O)[O-])c(C(=O)OCc2ccc(C#N)cc2)n1C` was 17.7 µg/mL (≈ 58.9 µM); that for `COC(=O)c1ccc(COc2ncnc3sccc23)cc1` was 17 µg/mL (≈ 56.6 µM); that for `Cc1onc(-c2ccccc2)c1C(=O)N(C)CCc1ccccn1` was greater than 48.2 µg/mL.
As for `CC(C)=CCN1CCN(CC#Cc2ccccc2)CC1CCO` (stereo not given), the solubility (kinetic) came out at 37.9 µg/mL (≈ 121 µM).
In the case of `Cc1cc(Cl)c(S(=O)(=O)N2CCCC2)cc1OCC(N)=O`, the solubility (kinetic) is greater than 49.9 µg/mL.
Consider `Cc1ccc(NC(=O)Cn2c(=O)oc3ccccc32)cc1`, for which the kinetic solubility amounted to 7.2 µg/mL (≈ 25.5 µM).
Take `COc1ccc(S(=O)(=O)Nc2ccccc2C(N)=O)cc1OC`: the kinetic solubility worked out at 47.5 µg/mL (≈ 141 µM).
Then `Cc1ccccc1OCC(=O)OCC(=O)Nc1ccc2c(c1)OCO2`, with 14.9 µg/mL (≈ 43.4 µM); and `Brc1ccccc1OCCN1CCOCC1.O=C(O)C(=O)O`, with greater than 56.4 µg/mL; and `O=C(Nc1ccccc1)NC1(C(=O)N2CCC(O)CC2)CCCCC1`, with greater than 51.8 µg/mL.
`CSc1ccccc1NC(=O)c1ccccn1` gave a kinetic solubility of 29.8 µg/mL (≈ 122 µM).
Regarding `CC(=Nc1ccc2c(c1)CCC2)c1c(O)n(-c2ccccc2)c(=O)[nH]c1=O`, the kinetic solubility is less than 0.3 µg/mL.
Then `Cc1ccc(C)c(OC(=O)C2CSC3(C)CCC(=O)N23)c1C` (stereo not given), with 44.2 µg/mL (≈ 138 µM); and `CCOc1ccccc1OCCC(=O)OCC(=O)c1ccc[nH]1`, with 21.8 µg/mL (≈ 68.7 µM).
